The target in the experiment is OXA-23 (Acinetobacter baumannii, UniProt Q9L4P2). The experiment can be described thus: X-ray crystal structures (seven soak time points); Ki by nitrocefin competition kinetics with purified enzyme. Type of experiment: biochemical. The source says:
X-ray crystal structures (seven soak time points); Ki by nitrocefin competition kinetics with purified enzyme on OXA-23 | The compound is covalently attached to the Ser79 side chain and anchored by six hydrogen bonds.

OXA-23, sequence (Q9L4P2 18-273): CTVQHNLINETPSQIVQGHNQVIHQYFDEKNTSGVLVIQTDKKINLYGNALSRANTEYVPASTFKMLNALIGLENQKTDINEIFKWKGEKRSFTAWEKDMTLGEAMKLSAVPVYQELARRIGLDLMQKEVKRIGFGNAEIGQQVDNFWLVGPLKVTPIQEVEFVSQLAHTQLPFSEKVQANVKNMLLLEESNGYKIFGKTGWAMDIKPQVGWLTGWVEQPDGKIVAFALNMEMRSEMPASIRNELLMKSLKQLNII

Broadly, the Ki is the dissociation constant of the complex between target and ligand, obtained from inhibition or displacement. A low value points to a stronger hold on the target. In turn, `CN(C)C(=O)[C@@H]1C[C@H](SC2=C(C(=O)O)N3C(=O)[C@H](CO)[C@H]3C2)CN1` [MA-1-206] gave a Ki of 26 ± 2 nM.

(Values after paper PMC9239083, “C6 Hydroxymethyl-Substituted Carbapenem MA-1-206 Inhibits the Major Acinetobacter baumannii Carbapenemase OXA-23 by Impeding Deacylation” (mBio, 2022).)
